Test results reported in ChEMBL document CHEMBL1201862, “PubChem BioAssay data set” (2004).
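Test compounds were applied to cells in 96-well plates for 48 hours at 5 doses. GI50 = concentration required for 50% inhibition of growth.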 Calls of active or inactive are those of the source. No stated cut-off is given here; in the data, active = GI50 up to about 1.1 µM and inactive = higher.

Key:
Assay in all cases: NCI-60 cell line screen, 48 h
[1] = tested on: 786-0
[2] = tested on: A549
[3] = tested on: ACHN
[4] = tested on: BT-549
[5] = tested on: CCRF-CEM
[6] = tested on: COLO 205
[7] = tested on: DU-145
[8] = tested on: EKVX
[9] = tested on: HCC 2998
[10] = tested on: HCT-15
[11] = tested on: HL-60
[12] = tested on: HOP-92
[13] = tested on: HT-29
[14] = tested on: Hs-578T
[15] = tested on: IGROV-1
[16] = tested on: K562
[17] = tested on: KM12
[18] = tested on: M14
[19] = tested on: MCF7
[20] = tested on: MDA-MB-435
[21] = tested on: MDA-N
[22] = tested on: MOLT-4
[23] = tested on: Malme-3M
[24] = tested on: NCI-H226
[25] = tested on: NCI-H23
[26] = tested on: NCI-H460
[27] = tested on: NCI-H522
[28] = tested on: NCI/ADR-RES
[29] = tested on: OVCAR-4
[30] = tested on: OVCAR-5
[31] = tested on: OVCAR-8
[32] = tested on: PC-3
[33] = tested on: RPMI-8226
[34] = tested on: SF-268
[35] = tested on: SF-295
[36] = tested on: SF-539
[37] = tested on: SK-MEL-28
[38] = tested on: SK-MEL-5
[39] = tested on: SN12C
[40] = tested on: SNB-19
[41] = tested on: SR
[42] = tested on: SW-620
[43] = tested on: T47D
[44] = tested on: TK-10
[45] = tested on: U-251
[46] = tested on: UACC-62
[47] = tested on: UO-31
[48] = tested on: A498
[49] = tested on: HOP-62
[50] = tested on: LOX IMVI
[51] = tested on: MDA-MB-231
[52] = tested on: OVCAR-3
[53] = tested on: RXF 393
[54] = tested on: SK-MEL-2
[55] = tested on: SK-OV-3
[56] = tested on: SNB-75
[57] = tested on: UACC-257
[58] = tested on: CAKI-1
[59] = tested on: HCT-116

## O=c1c(-c2ccc(O)cc2)coc2cc(O)cc(O)c12 [GENISTEIN]
[1]
  GI50: 43.2 µM (inactive)
[2]
  GI50: 62.4 µM (inactive)
[3]
  GI50: 29.7 µM (inactive)
[4]
  GI50: 88.3 µM (inactive)
[5]
  GI50: > 10 µM (inactive)
[6]
  GI50: > 100 µM (inactive)
[7]
  GI50: 92.5 µM (inactive)
[8]
  GI50: 63.1 µM (inactive)
[9]
  GI50: > 100 µM (inactive)
[10]
  GI50: 72.9 µM
[11]
  GI50: 69.8 µM (inactive)
[12]
  GI50: > 100 µM (inactive)
[13]
  GI50: > 100 µM (inactive)
[14]
  GI50: 65.2 µM (inactive)
[15]
  GI50: 71.6 µM (inactive)
[16]
  GI50: > 100 µM (inactive)
[17]
  GI50: > 100 µM (inactive)
[18]
  GI50: > 100 µM (inactive)
[19]
  GI50: > 100 µM (inactive)
[20]
  GI50: > 100 µM (inactive)
[21]
  GI50: > 100 µM (inactive)
[22]
  GI50: 40.4 µM (inactive)
[23]
  GI50: > 100 µM (inactive)
[24]
  GI50: 74.1 µM (inactive)
[25]
  GI50: > 100 µM (inactive)
[26]
  GI50: 42 µM (inactive)
[27]
  GI50: 36.4 µM (inactive)
[28]
  GI50: > 100 µM (inactive)
[29]
  GI50: > 100 µM (inactive)
[30]
  GI50: > 100 µM (inactive)
[31]
  GI50: > 100 µM (inactive)
[32]
  GI50: > 100 µM (inactive)
[33]
  GI50: 77.8 µM (inactive)
[34]
  GI50: > 100 µM (inactive)
[35]
  GI50: 55 µM (inactive)
[36]
  GI50: > 100 µM (inactive)
[37]
  GI50: > 100 µM (inactive)
[38]
  GI50: > 100 µM (inactive)
[39]
  GI50: 52.5 µM (inactive)
[40]
  GI50: 92 µM (inactive)
[41]
  GI50: 56.8 µM (inactive)
[42]
  GI50: 49.2 µM (inactive)
[43]
  GI50: > 100 µM (inactive)
[44]
  GI50: > 100 µM (inactive)
[45]
  GI50: > 100 µM (inactive)
[46]
  GI50: > 100 µM (inactive)
[47]
  GI50: 24.9 µM (inactive)

## C=CCCC(=O)C(=[N+]=[N-])C(=O)CCC(=O)c1ccccc1
[1]
  GI50: > 10 µM (inactive)
[48]
  GI50: > 10 µM (inactive)
[2]
  GI50: > 10 µM (inactive)
[3]
  GI50: > 10 µM (inactive)
[4]
  GI50: > 10 µM (inactive)
[7]
  GI50: > 10 µM (inactive)
[8]
  GI50: > 10 µM (inactive)
[10]
  GI50: > 10 µM
[49]
  GI50: > 10 µM (inactive)
[12]
  GI50: > 10 µM (inactive)
[13]
  GI50: > 10 µM (inactive)
[14]
  GI50: > 10 µM (inactive)
[15]
  GI50: > 10 µM (inactive)
[16]
  GI50: > 10 µM (inactive)
[50]
  GI50: > 10 µM (inactive)
[18]
  GI50: > 10 µM (inactive)
[19]
  GI50: > 10 µM (inactive)
[51]
  GI50: > 10 µM (inactive)
[20]
  GI50: > 10 µM (inactive)
[21]
  GI50: > 10 µM (inactive)
[22]
  GI50: > 10 µM (inactive)
[23]
  GI50: > 10 µM (inactive)
[24]
  GI50: > 10 µM (inactive)
[25]
  GI50: > 10 µM (inactive)
[26]
  GI50: > 10 µM (inactive)
[52]
  GI50: > 10 µM (inactive)
[30]
  GI50: > 10 µM (inactive)
[31]
  GI50: > 10 µM (inactive)
[32]
  GI50: > 10 µM (inactive)
[33]
  GI50: > 10 µM (inactive)
[53]
  GI50: > 10 µM (inactive)
[34]
  GI50: > 10 µM (inactive)
[35]
  GI50: > 10 µM (inactive)
[36]
  GI50: > 10 µM (inactive)
[37]
  GI50: > 10 µM (inactive)
[54]
  GI50: > 10 µM (inactive)
[38]
  GI50: > 10 µM (inactive)
[55]
  GI50: > 10 µM (inactive)
[39]
  GI50: > 10 µM (inactive)
[40]
  GI50: > 10 µM (inactive)
[56]
  GI50: 8.38 µM (inactive)
[41]
  GI50: > 10 µM (inactive)
[42]
  GI50: > 10 µM (inactive)
[43]
  GI50: > 10 µM (inactive)
[44]
  GI50: > 10 µM (inactive)
[45]
  GI50: > 10 µM (inactive)
[57]
  GI50: > 10 µM (inactive)
[46]
  GI50: > 10 µM (inactive)
[47]
  GI50: > 10 µM (inactive)

## Cc1ccc(C(=O)O)c(/C=C2\Cc3cc(C)cc(C)c3C2=O)c1
[1]
  GI50: > 100 µM (inactive)
[48]
  GI50: 81.1 µM (inactive)
[2]
  GI50: 78.2 µM (inactive)
[3]
  GI50: 74 µM (inactive)
[4]
  GI50: > 100 µM (inactive)
[58]
  GI50: > 100 µM (inactive)
[5]
  GI50: 35.7 µM (inactive)
[7]
  GI50: > 100 µM (inactive)
[8]
  GI50: 66.7 µM (inactive)
[9]
  GI50: 70.1 µM (inactive)
[59]
  GI50: 53.7 µM (inactive)
[10]
  GI50: 53.1 µM
[11]
  GI50: 38.6 µM (inactive)
[49]
  GI50: > 100 µM (inactive)
[13]
  GI50: > 100 µM (inactive)
[14]
  GI50: 93.8 µM (inactive)
[15]
  GI50: > 100 µM (inactive)
[16]
  GI50: 52.4 µM (inactive)
[17]
  GI50: 65.2 µM (inactive)
[50]
  GI50: 72.3 µM (inactive)
[19]
  GI50: 69.3 µM (inactive)
[51]
  GI50: 41.3 µM (inactive)
[21]
  GI50: 56.5 µM (inactive)
[22]
  GI50: 53.2 µM (inactive)
[23]
  GI50: 96.4 µM (inactive)
[24]
  GI50: 40.5 µM (inactive)
[26]
  GI50: 49.2 µM (inactive)
[27]
  GI50: > 100 µM (inactive)
[52]
  GI50: 36 µM (inactive)
[31]
  GI50: 82.2 µM (inactive)
[32]
  GI50: 48.6 µM (inactive)
[33]
  GI50: 73.6 µM (inactive)
[53]
  GI50: 67.3 µM (inactive)
[34]
  GI50: > 100 µM (inactive)
[35]
  GI50: > 100 µM (inactive)
[36]
  GI50: 75.9 µM (inactive)
[37]
  GI50: > 100 µM (inactive)
[54]
  GI50: > 100 µM (inactive)
[38]
  GI50: 35.7 µM (inactive)
[39]
  GI50: 49.4 µM (inactive)
[40]
  GI50: > 100 µM (inactive)
[56]
  GI50: 63.5 µM (inactive)
[41]
  GI50: 46 µM (inactive)
[42]
  GI50: > 100 µM (inactive)
[43]
  GI50: 46.6 µM (inactive)
[44]
  GI50: > 100 µM (inactive)
[45]
  GI50: 78.5 µM (inactive)
[57]
  GI50: 90.6 µM (inactive)
[46]
  GI50: 76 µM (inactive)
[47]
  GI50: 92.3 µM (inactive)
